Assay results reported in patent US20170306409A1, “CANCER PATIENT SELECTION FOR ADMINISTRATION OF WNT SIGNALING INHIBITORS USING RNF43 MUTATION STATUS” (NOVARTIS AG, priority 2012, published 2017).

Legend:
Type in all cases: cell-based, human
HUP-T3 = assay: cell line proliferation assay (Cell Titer Glo)
Procedure: (§1) The sensitivity of pancreatic cells to LGK974 treatment were tested in a cellular proliferation assay in vitro. Twenty four human pancreatic cancer cell lines were treated with or without LGK974. Cellular proliferation data was generated in 384 well format. Cells were harvested and resuspended in their appropriate growth medium at a density of 1.5×10^4 cells per mL. […] Plates were then transferred to incubators on the ACP-1 system (37° C., 5% CO2) and cells were allowed to attach overnight. […] Following compound addition, plates were returned to the incubator for 120 hours. The assay plates were read with the addition of 10 μL of 1× Cell Titer Glo (Promega G7573) according to the manufacturer's instructions. Plates were then incubated at room temperature for ten minutes and read on the integrated Perkin Elmer Viewlux (2 second exposure, 2× bin, high sensitivity). The raw data was normalized using the DMSO control wells within each plate and the curve fitting for IC50 determination was performed. Cell growth was measured five days later with Cell Titer Glo (Promega). […] As shown in TABLE 4 and Example 4, all four cell lines harbor RNF43 loss-of-function (LOF) mutations

KP-1NL = assay: cell line proliferation assay (Cell Titer Glo)
Procedure: as §1

KP-1N = assay: cell line proliferation assay (Cell Titer Glo)
Procedure: as §1

KP-3 = assay: cell line proliferation assay (Cell Titer Glo)
Procedure: as §1

PK-1 = assay: cell line proliferation assay (Cell Titer Glo)
Procedure: as §1

Panc 03.27 = assay: cell line proliferation assay (Cell Titer Glo)
Procedure: as §1

Panc 05.04 = assay: cell line proliferation assay (Cell Titer Glo)
Procedure: as §1

Panc 10.05 = assay: cell line proliferation assay (Cell Titer Glo)
Procedure: as §1

SW1990 = assay: cell line proliferation assay (Cell Titer Glo)
Procedure: as §1

Axin2, YAPC = assay: Axin2 qPCR assay (pathway inhibition)
Procedure: For reverse transcription and quantitative PCR (qPCR), total RNA was extracted from cells or tumors using the RNeasy Plus Mini Kit (Qiagen). 1 μg of RNA were reverse transcribed with Taqman Reverse Transcription Reagents (Applied Biosystems) according to the manufacturer's instruction. Quantitative PCR was performed in 12 μl reactions consisting of 0.6 μl of 20× Taqman probe and PCR primer mix, 6 μl 2× Taqman FAST Advanced Master Mix (Applied Biosystems), and 5.4 μl diluted cDNA template. The thermocycling conditions utilized were 20 seconds at 95° C., followed by 40 cycles of 1 second at 95° C. and 20 seconds at 60° C. All experiments were performed in quadruplicates. Gene expression analysis was performed using the comparative ΔΔCT method and normalized with the housekeeping gene GUSB or 18S. The Taqman probes were purchased from Applied Biosystems.
Consistent with this observation, treatment of Porcupine inhibitor IWP2 or LGK974 increased the cell surface level of Frizzled and decreased the mRNA levels of AXIN2 and RNF43. See, FIG. 4(b). […] YAPC cells were treated with 3 μM of IWP-2 or 1 μM of LGK974, and subjected to flowcytometry analysis for membrane Frizzled expression.

TCC-PAN2 = assay: pathway inhibition by LGK974 (Table 4)
RNF43 mutant cell lines = assay: EdU proliferation assay; settings: 1 μM LGK974, 3 days
Procedure: (§2) Further, LGK974 induced the expression of differentiation marker MUC2, MUC5A/C in RNF43 mutant cells. LGK974 blocked EDU incorporation in RNF43 mutant cell lines, so Wnt inhibition in these cells leads to cell cycle arrest. LGK974-induced growth inhibition and cellular differentiation of RNF43 mutant cells are also obvious using Ki67 staining (anti-Ki67 (SP6) from Vector Laboratories, Burlingame, Calif., USA 94010) and Alcian Blue staining.
For the EdU proliferation assay, cells were plated in growth medium in 96 well plate at a density of 6000-12,000 cells per well, and treated with DMSO or 1 μM LGK974. After 3 days, the cells were treated with fresh growth medium containing 20 μM EdU, which was included in the Click-iT EdU Alexa Fluor 488 HCS assay kit (Invitrogen), and the plate was incubated for 2 hr at 37° C. in a humidified atmosphere containing 5% CO2. Cells were fixed with final 4% paraformaldehyde for 30 min, washed with PBS, permeabilized, and stained with 0.75% TritonX-100 and 50 μg/ml Hoechst in PBS for 30 min. After wash, the cells were proceeded EdU detection according to the instruction of Click-iT EdU assay kit. Triplet wells were performed for each condition.

HPAFII = assay: soft agar assay; settings: 1 μM LGK974
Procedure: as §2
(§3) For soft agar assay, cells were suspended in 250 μl of 0.3% low melting agarose (Lonza) in DMEM containing 10% FBS, and plated onto 250 μl of solidified 0.8% agarose containing DMEM in 48-well culture plates at a density of 5,000-10,000 cells per well. 250 μl of growth medium were added on top of the cells after plate was cooled at Rt for 30 minutes. The plate was then incubated at 37° C. in a humidified atmosphere containing 5% CO2. The cells were treated with fresh growth medium containing DMSO or 1 μM LGK974 every 3-4 days. When colonies reached desirable size, photographs were taken and colonies were stained with AlamarBlue (from Invitrogen, Life Technologies, Grand Island, N.Y., USA 14072) according to the manufacturer's instruction. These experiments were repeated three times, and at least four wells were replicated each time for each condition.

PK1 = assay: soft agar assay; settings: 1 μM LGK974
Procedure: as §2, §3

PaTu-8988S = assay: soft agar assay; settings: 1 μM LGK974
Procedure: as §2, §3

[1] = Homo sapiens, 120 hours, Cell Titer Glo, read-out: LGK974 IC50s in cell line proliferation assay

`Cc1cc(-c2ncc(CC(=O)Nc3ccc(-c4cnccn4)cn3)cc2C)ccn1` [LGK974, 2-[5-methyl-6-(2-methylpyridin-4-yl)pyridin-3-yl]-N-[5-(pyrazin-2-yl)pyridin-2-yl]acetamide] was tested, and the “Inhibition fold change (1-Treated/Control)” value (HUP-T3) was 0.07, the IC50 (HUP-T3; [1]) was over 2000 nM and the “Inhibition fold change (1-Treated/Control)” value (KP-1NL) was 0.00. The IC50 (KP-1NL; [1]) was over 2000 nM, the “Inhibition fold change (1-Treated/Control)” value (KP-1N) was 0.01 and the IC50 (KP-1N; [1]) was over 2000 nM. The “Inhibition fold change (1-Treated/Control)” value (KP-3) was 0.02, the IC50 (KP-3; [1]) was over 2000 nM and the “Inhibition fold change (1-Treated/Control)” value (PK-1) was 0.00. For the same compound, the IC50 (PK-1; [1]) was over 2000 nM, the IC50 (Panc 03.27; Homo sapiens, PANC-03-27, Panc 03.27, 120 hours, Cell Titer Glo, read-out: LGK974 IC50s in cell line proliferation assay) was over 2000 nM and the “Inhibition fold change (1-Treated/Control)” value (Panc 03.27; Panc03.27) was 0.06. The IC50 (Panc 05.04; Homo sapiens, Panc 05.04, 120 hours, Cell Titer Glo, read-out: LGK974 IC50s in cell line proliferation assay) was over 2000 nM, the “Inhibition fold change (1-Treated/Control)” value (Panc 05.04; Panc05.04) was 0.09 and the IC50 (Panc 10.05; Homo sapiens, Panc1005, Panc 10.05, 120 hours, Cell Titer Glo, read-out: LGK974 IC50s in cell line proliferation assay) was over 2000 nM. The “Inhibition fold change (1-Treated/Control)” value (Panc 10.05; Panc10.05) was 0.02, the “Inhibition fold change (1-Treated/Control)” value (SW1990) was 0.03 and the IC50 (SW1990; [1]) was over 2000 nM. For the same compound, the “Pathway inhibition in Axin2 qPCR assay” value (Axin2, YAPC; YAPC) was “Yes”, the “mRNA level of AXIN2” value (Axin2, YAPC; YAPC cells, 1 μM of LGK974) was “decreased” and the Pathway inhibition (TCC-PAN2) was “Yes”. The EDU incorporation (RNF43 mutant cell lines) was “blocked”, the “proliferation in soft agar assay” value (HPAFII) was “strongly inhibited” and the “proliferation in soft agar assay” value (PK1) was “not”. The “proliferation in soft agar assay” value (PaTu-8988S) was “strongly inhibited”.
